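48-hour exposure; five concentrations; linearly interpolated endpoints. GI50 = concentration required for 50% inhibition of growth. Definition used: TGI = concentration required for complete inhibition of growth.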
How the values were obtained:
Assay in all cases: inhibition of tumour cell growth, NCI panel, 48 h
A498 renal = system: A498 renal
A549 NSCLC = system: A549 NSCLC
ACHN renal = system: ACHN renal
CAKI-1 renal = system: CAKI-1 renal
CCRF-CEM leukemia = system: CCRF-CEM leukemia
COLO 205 colon = system: COLO 205 colon
DU-145 prostate = system: DU-145 prostate
EKVX NSCLC = system: EKVX NSCLC
HCC-2998 colon = system: HCC-2998 colon
HCT-116 colon = system: HCT-116 colon
HCT-15 colon = system: HCT-15 colon
HL-60(TB) leukemia = system: HL-60(TB) leukemia
HOP-62 NSCLC = system: HOP-62 NSCLC
HOP-92 NSCLC = system: HOP-92 NSCLC
HS 578T breast = system: HS 578T breast
HT29 colon = system: HT29 colon
IGROV1 ovarian = system: IGROV1 ovarian
K-562 leukemia = system: K-562 leukemia
KM12 colon = system: KM12 colon
LOX IMVI melanoma = system: LOX IMVI melanoma
M14 melanoma = system: M14 melanoma
MALME-3M melanoma = system: MALME-3M melanoma
MCF7 breast = system: MCF7 breast
MDA-MB-231 breast = system: MDA-MB-231 breast
MDA-MB-435 = system: MDA-MB-435
MDA-MB-468 breast = system: MDA-MB-468 breast
MOLT-4 leukemia = system: MOLT-4 leukemia
NCI-H226 lung = system: NCI-H226 lung
NCI-H23 lung = system: NCI-H23 lung
NCI-H460 lung = system: NCI-H460 lung
NCI-H522 lung = system: NCI-H522 lung
NCI/ADR-RES ovarian = system: NCI/ADR-RES ovarian
OVCAR-3 ovarian = system: OVCAR-3 ovarian
OVCAR-4 ovarian = system: OVCAR-4 ovarian
OVCAR-5 ovarian = system: OVCAR-5 ovarian
OVCAR-8 ovarian = system: OVCAR-8 ovarian
PC-3 prostate = system: PC-3 prostate
RPMI-8226 leukemia = system: RPMI-8226 leukemia
RXF 393 renal = system: RXF 393 renal
SF-268 CNS = system: SF-268 CNS
SF-295 CNS = system: SF-295 CNS
SF-539 CNS = system: SF-539 CNS
SK-MEL-2 melanoma = system: SK-MEL-2 melanoma
SK-MEL-28 melanoma = system: SK-MEL-28 melanoma
SK-MEL-5 melanoma = system: SK-MEL-5 melanoma
SK-OV-3 ovarian = system: SK-OV-3 ovarian
SN12C renal = system: SN12C renal
SNB-19 CNS = system: SNB-19 CNS
SNB-75 CNS = system: SNB-75 CNS
SR leukemia = system: SR leukemia
SW-620 colon = system: SW-620 colon
T-47D breast = system: T-47D breast
TK-10 renal = system: TK-10 renal
U251 CNS = system: U251 CNS
UACC-257 melanoma = system: UACC-257 melanoma
UACC-62 melanoma = system: UACC-62 melanoma
UO-31 renal = system: UO-31 renal

Compound: COc1ccc(-c2nc3ccc(-c4nnc(SCC(=O)Nc5ccc(/C(C)=N\O)cc5)o4)cc3[nH]2)cc1
- GI50 (A498 renal): 22.7 µM
- TGI (A498 renal): 37.2 µM
- GI50 (A549 NSCLC): 14.1 µM
- TGI (A549 NSCLC): 35.6 µM
- GI50 (ACHN renal): 13 µM
- TGI (ACHN renal): 35.2 µM
- GI50 (CAKI-1 renal): 5.93 µM
- TGI (CAKI-1 renal): 25 µM
- GI50 (CCRF-CEM leukemia): 7.22 µM
- TGI (CCRF-CEM leukemia): > 100 µM
- GI50 (COLO 205 colon): 26.2 µM
- TGI (COLO 205 colon): > 100 µM
- GI50 (DU-145 prostate): 14.8 µM
- TGI (DU-145 prostate): 31.8 µM
- GI50 (EKVX NSCLC): 17.1 µM
- TGI (EKVX NSCLC): 48.8 µM
- GI50 (HCC-2998 colon): 50.8 µM
- TGI (HCC-2998 colon): > 100 µM
- GI50 (HCT-116 colon): 3.31 µM
- TGI (HCT-116 colon): > 100 µM
- GI50 (HCT-15 colon): > 100 µM
- TGI (HCT-15 colon): > 100 µM
- GI50 (HL-60(TB) leukemia): 19.5 µM
- TGI (HL-60(TB) leukemia): > 100 µM
- GI50 (HOP-62 NSCLC): 22.9 µM
- TGI (HOP-62 NSCLC): > 100 µM
- GI50 (HOP-92 NSCLC): 4.14 µM
- TGI (HOP-92 NSCLC): 19.7 µM
- GI50 (HS 578T breast): 2.75 µM
- TGI (HS 578T breast): 8.15 µM
- GI50 (HT29 colon): 13.8 µM
- TGI (HT29 colon): 35.6 µM
- GI50 (IGROV1 ovarian): 12 µM
- TGI (IGROV1 ovarian): 24.3 µM
- GI50 (K-562 leukemia): 3.68 µM
- TGI (K-562 leukemia): > 100 µM
- GI50 (KM12 colon): 10.8 µM
- TGI (KM12 colon): > 100 µM
- GI50 (LOX IMVI melanoma): 5.69 µM
- TGI (LOX IMVI melanoma): 19.4 µM
- GI50 (M14 melanoma): 3.05 µM
- TGI (M14 melanoma): > 100 µM
- GI50 (MALME-3M melanoma): 1.69 µM
- TGI (MALME-3M melanoma): 3.95 µM
- GI50 (MCF7 breast): 8.61 µM
- TGI (MCF7 breast): 30.9 µM
- GI50 (MDA-MB-231 breast): 3.83 µM
- TGI (MDA-MB-231 breast): 13.4 µM
- GI50 (MDA-MB-435): 4 µM
- TGI (MDA-MB-435): 18.1 µM
- GI50 (MDA-MB-468 breast): 6.35 µM
- TGI (MDA-MB-468 breast): 19.3 µM
- GI50 (MOLT-4 leukemia): 9.01 µM
- TGI (MOLT-4 leukemia): > 100 µM
- GI50 (NCI-H226 lung): 11.7 µM
- TGI (NCI-H226 lung): 33.2 µM
- GI50 (NCI-H23 lung): 11 µM
- TGI (NCI-H23 lung): 33.9 µM
- GI50 (NCI-H460 lung): 15 µM
- TGI (NCI-H460 lung): 53 µM
- GI50 (NCI-H522 lung): 6.37 µM
- TGI (NCI-H522 lung): 23 µM
- GI50 (NCI/ADR-RES ovarian): > 100 µM
- TGI (NCI/ADR-RES ovarian): > 100 µM
- GI50 (OVCAR-3 ovarian): 12.7 µM
- TGI (OVCAR-3 ovarian): 38.1 µM
- GI50 (OVCAR-4 ovarian): 20.9 µM
- TGI (OVCAR-4 ovarian): 91.7 µM
- GI50 (OVCAR-5 ovarian): 19.9 µM
- TGI (OVCAR-5 ovarian): 41 µM
- GI50 (OVCAR-8 ovarian): 7.7 µM
- TGI (OVCAR-8 ovarian): 44.6 µM
- GI50 (PC-3 prostate): 3.05 µM
- TGI (PC-3 prostate): 10.8 µM
- GI50 (RPMI-8226 leukemia): 4 µM
- TGI (RPMI-8226 leukemia): > 100 µM
- GI50 (RXF 393 renal): 2.03 µM
- TGI (RXF 393 renal): 5.18 µM
- GI50 (SF-268 CNS): 4.38 µM
- TGI (SF-268 CNS): 23.1 µM
- GI50 (SF-295 CNS): 14.2 µM
- TGI (SF-295 CNS): 32.8 µM
- GI50 (SF-539 CNS): 2.15 µM
- TGI (SF-539 CNS): 6.35 µM
- GI50 (SK-MEL-2 melanoma): 5.27 µM
- TGI (SK-MEL-2 melanoma): 17.8 µM
- GI50 (SK-MEL-28 melanoma): 2.05 µM
- TGI (SK-MEL-28 melanoma): 4.03 µM
- GI50 (SK-MEL-5 melanoma): 1.68 µM
- TGI (SK-MEL-5 melanoma): 3.66 µM
- GI50 (SK-OV-3 ovarian): 12.2 µM
- TGI (SK-OV-3 ovarian): 28.8 µM
- GI50 (SN12C renal): 11.6 µM
- TGI (SN12C renal): 28 µM
- GI50 (SNB-19 CNS): 13.1 µM
- TGI (SNB-19 CNS): 28.3 µM
- GI50 (SNB-75 CNS): 2.8 µM
- TGI (SNB-75 CNS): 14.9 µM
- GI50 (SR leukemia): > 100 µM
- TGI (SR leukemia): > 100 µM
- GI50 (SW-620 colon): 26.1 µM
- TGI (SW-620 colon): 87.6 µM
- GI50 (T-47D breast): 10 µM
- TGI (T-47D breast): 34.8 µM
- GI50 (TK-10 renal): 19.8 µM
- TGI (TK-10 renal): 37.5 µM
- GI50 (U251 CNS): 4.3 µM
- TGI (U251 CNS): 20.4 µM
- GI50 (UACC-257 melanoma): 4.31 µM
- TGI (UACC-257 melanoma): 17.2 µM
- GI50 (UACC-62 melanoma): 3.2 µM
- TGI (UACC-62 melanoma): 12 µM
- GI50 (UO-31 renal): 33.5 µM
- TGI (UO-31 renal): > 100 µM

— PubChem BioAssay (NCI)
